Measurements as given in patent publication US9969766B2, “20(R)-ginsenoside Rg3 polyacylated derivatives, preparation and application thereof” (priority 2014, dated 2018).

Tests used:
[1] = cited from earlier work
[2] = Solubility of the isolated products; type: physicochemical
mouse Lewis lung cancer [3] = experiment: Mouse Lewis lung cancer, toe subcutaneous inoculation, anti-tumor test; settings: 100 mg/kg/d, ip × 14qod
Source text: (§1) human breast cancer Bcap-37 model, human lung cancer A549 model, human intestinal cancer LOVO model, human stomach cancer MGC model and human liver cancer QGY model, with tumor cell lines being of the second generation or more, mouse B16 melanoma cell line, mouse Lewis lung cancer model, mouse sarcoma s180 model, all passaged and preserved in Pharmacological Division of Shanghai Institute of Pharmaceutical Industry. 3. Experiment Animals Origins: nude mice, 6-week old, 18-22 g/mouse, provided by Laboratory Animal Center of Chinese Academy of Sciences, Shanghai Branch, with certification No. 2001A032. C57BL/6 mice and Kunming mice, 18-22 g/mouse, provided by Laboratory Animal Center of Chinese Academy of Sciences, Shanghai Branch, with certification SYXK (Shanghai) 2004-0015. Gender: male or female, the same gender for each batch in experiment Animal numbers: 10 mice and 10 nude mice for each of positive control group and test group in experiment, and 20 for negative control group. 4. Experiment Design Dose Settings: doses for 20(R)-ginsenoside Rg3 octo-acetate, 20(R)-ginsenoside Rg3 octo-n-butyrate and 20(R)-ginsenoside Rg3 octo-n-propionate were set as high-dose group (0.3 mg/kg/d), medium-dose group (0.06 mg/kg/d), and low-dose group (0.012 mg/kg/d). Dosage regimen: oral administration, twice daily. human tumor model and cell-inoculated mouse model: po×14 bid; mouse tumor-inoculated model: po×10 bid. Control Trial: negative control group: given with the same volume of 5% CMC-Na as the test group, and the same dosage regimen as the test group. positive control group: Cyclophosphamide CTX 30 mg/kg, […] 5. Experiment Method and Key Steps 5.1 Anti-Tumor Test 5.1.1 Subcutaneous Inoculation Model
(§2) Tumor cells of vigorous growth stage were taken under sterile condition and made into cell suspensions of about 1-2×10^7/ml by homogenization, the suspensions were inoculated subcutaneously at 0.2 ml/mouse in host mice and repeated on the next day according to the experiment design, the animals in each group were slaughtered after about three weeks, the tumors were collected and weighed, and the tumor inhibition rates were calculated according to the following equation: tumor inhibition rate %=[(average tumor weight of control group-average tumor weight of treatment group)/average tumor weight of control group]×100%

[4] = system: human liver cancer QGY cells; experiment: Human liver cancer QGY liver in-situ inoculation, survival; settings: 100 mg/kg/d, ip × 2qod
Source text: (§3) human breast cancer Bcap-37 model, human lung cancer A549 model, human intestinal cancer LOVO model, human stomach cancer MGC model and human liver cancer QGY model, with tumor cell lines being of the second generation or more, mouse B16 melanoma cell line, mouse Lewis lung cancer model, mouse sarcoma s180 model, all passaged and preserved in Pharmacological Division of Shanghai Institute of Pharmaceutical Industry. 3. Experiment Animals Origins: nude mice, 6-week old, 18-22 g/mouse, provided by Laboratory Animal Center of Chinese Academy of Sciences, Shanghai Branch, with certification No. 2001A032. C57BL/6 mice and Kunming mice, 18-22 g/mouse, provided by Laboratory Animal Center of Chinese Academy of Sciences, Shanghai Branch, with certification SYXK (Shanghai) 2004-0015. Gender: male or female, the same gender for each batch in experiment Animal numbers: 10 mice and 10 nude mice for each of positive control group and test group in experiment, and 20 for negative control group. 4. Experiment Design Dose Settings: doses for 20(R)-ginsenoside Rg3 octo-acetate, 20(R)-ginsenoside Rg3 octo-n-butyrate and 20(R)-ginsenoside Rg3 octo-n-propionate were set as high-dose group (0.3 mg/kg/d), medium-dose group (0.06 mg/kg/d), and low-dose group (0.012 mg/kg/d). Dosage regimen: oral administration, twice daily. human tumor model and cell-inoculated mouse model: po×14 bid; mouse tumor-inoculated model: po×10 bid. Control Trial: negative control group: given with the same volume of 5% CMC-Na as the test group, and the same dosage regimen as the test group. positive control group: Cyclophosphamide CTX 30 mg/kg, MMC 2 mg/kg and 5Fu 30 mg/kg by intraperitoneal or intravenous administration, once daily, for seven consecutive days. 5. Experiment Method and Key Steps 5.1 Anti-Tumor Test 5.1.1 Subcutaneous Inoculation Model
Under sterile condition, the in vivo passage of the second generation of QGY tumor source of vigorous growth stage was prepared into cell suspensions of about 1-2×10^7/ml by homogenization (1:6), and the homogenates were filtered using 100-mesh stainless steel screen, getting ready for use. The nude mice were disinfected routinely and anaesthetized and cut at the xiphoid in the middle of the abdominal cavity to expose the liver, the cell suspensions (0.05 ml) were injected into liver parenchyma using imported 28 ga ½ ml syringes, the abdominal cavity was closed and then sutured layer by layer. The nude mice were fed in the laminar flow rack, with all the feed, packing, cage and contact instruments being sterilized under high pressure before use.

mouse Lewis lung cancer [5] = experiment: Mouse Lewis lung cancer (subcutaneous inoculation) metastasis model; settings: 100 mg/kg/d, ip × 2qod
Source text: as §3, §2

mouse sarcoma S180 cells = experiment: Mouse sarcoma S180 metastasis model; settings: 100 mg/kg/d, ip × 2qod
Source text: as §3

[6] = system: human intestinal cancer LOVO cells; settings: 100 mg/kg/d, ip × 2qod
Source text: as §1
LOVO intestinal cancer cells (cultured in vitro) of logarithmic growth stage were taken under sterile condition and prepared into cell suspensions of about 1.8×10^7/ml using RPMI1640 culture medium as diluent. The nude mice were subjected to general anesthesia and cut in belly after routine disinfection to belly skin, the spleens were taken out and inoculated with LOVO intestinal cancer cell suspensions (0.05 ml/mouse) and then restored, the incisions were sutured, and the mice were placed in the cages and then put in the laminar flow rack.

[7] = system: human stomach cancer MGC cells; experiment: Human stomach cancer MGC in-situ inoculation, survival; settings: 100 mg/kg/d, ip × 2qod
Source text: as §3

[8] = system: human lung cancer A549 cells; experiment: Human lung cancer A549 (subcutaneous inoculation) metastasis model; settings: 100 mg/kg/d, ip × 2qod
mouse melanoma B16 cells = experiment: Mouse melanoma B16 tail vein inoculation, lung metastasis; settings: 100 mg/kg/d, ip × 2qod
Source text: as §3

[9] = system: human breast cancer Bcap-37 cells; experiment: Human breast cancer Bcap-37 subcutaneous inoculation in nude mice; settings: 100 mg/kg/d, ip × 2qod
Source text: as §1, with “group:” for “group: Cyclophosphamide CTX 30 mg/kg,”
as §2
The same operation was repeated in human tumor xenograft model, except that the feed, packing, cage and contact instruments were all sterilized under high pressure before use and the nude mice were fed in a laminar flow rack. The tumors and tumor-bearing animal weight gains were dynamically measured (tumor size measured using caliper: long diameter/a, short diameter/b, and tumor bulk=a×b^2/2).

Structure (SMILES): CC(C)=CCC[C@@](C)(O)[C@H]1CC[C@]2(C)[C@@H]1[C@H](O)C[C@@H]1[C@@]3(C)CC[C@H](O[C@@H]4O[C@H](CO)[C@@H](O)[C@H](O)[C@H]4O[C@@H]4O[C@H](CO)[C@@H](O)[C@H](O)[C@H]4O)C(C)(C)[C@@H]3CC[C@]12C [20 (R)-ginsenoside Rg3, 20 (R)-Ginsenoside Rg3]
- Solubility in low polarity or non-polar solvent ([1]; petroleum ether, chloroform and other low polarity or non-polar solvent): not soluble
- Solubility in pyridine, ethanol solution, strong acid and strong alkaline solutions ([1]; pyridine, ethanol solution (50%˜70%), strong acid aqueous solutions (pH<2), strong alkaline solutions (pH>10)): easily soluble
- Solubility in water and other high polarity solvents ([1]; water and other high polarity solvents): not soluble

Structure (SMILES): CCCCCC(=O)OC[C@H]1O[C@@H](OC2CC[C@]3(C)C(CC[C@@]4(C)C3C[C@H](OC(=O)CCCCC)C3C([C@@](C)(O)CCC=C(C)C)CC[C@@]34C)C2(C)C)[C@H](OC2O[C@H](COC(=O)CCCCC)[C@@H](OC(=O)CCCCC)[C@H](OC(=O)CCCCC)[C@H]2OC(=O)CCCCC)[C@@H](OC(=O)CCCCC)[C@@H]1OC(=O)CCCCC (stereo partly drawn) [20(R)-Ginsenoside Rg3 octo-n-hexanoate]
- Solubility in ethanol ([2]; ethanol): soluble
- Solubility in water ([2]; water): soluble

Structure (SMILES): O=P1(N(CCCl)CCCl)NCCCO1 (centres unmarked) [CTX, cyclophosphamide, reference compound]
- Animal body weight (g) Start (mouse Lewis lung cancer [3]): 20.2 g
- Animal body weight (g) end (mouse Lewis lung cancer [3]): 21.9 g
- Tumor inhibition rate % (mouse Lewis lung cancer [3]): 93.92%
- Tumor-bearing toe weight (g) X ± SD (mouse Lewis lung cancer [3]): 0.0541 ± 0.02 g
- Animal body weight (g) Start [4]: 19.1 g
- Animal body weight (g) end [4]: 21.0 g
- Average survival (d) X ± SD [4]: 37.23 ± 3.4 days
- Life extension rate T/C × % [4]: 159.44%
- Animal body weight (g) Start (mouse Lewis lung cancer [5]): 19.4 g
- Animal body weight (g) end (mouse Lewis lung cancer [5]): 21.0 g
- Anti-metastasis rate % (mouse Lewis lung cancer [5]): 82.12%
- Lung clone numbers (mice) X ± SD (mouse Lewis lung cancer [5]): 0.50 ± 0.09
- Animal body weight (g) Start (mouse sarcoma S180 cells): 20.2 g
- Animal body weight (g) end (mouse sarcoma S180 cells): 21.0 g
- Anti-metastasis rate % (mouse sarcoma S180 cells): 93.84%
- Lung clone numbers (mice) X ± SD (mouse sarcoma S180 cells): 0.18 ± 2.1
- Animal body weight (g) Start [6]: 19.5 g
- Animal body weight (g) end [6]: 21.1 g
- Average survival (d) X ± SD [6]: 29.36 ± 3.3 days
- Life extension rate T/C × % [6]: 214.91%
- Animal body weight (g) Start [7]: 19.5 g
- Animal body weight (g) end [7]: 21.1 g
- Average survival (d) X ± SD [7]: 41.22 ± 3.5 days
- Life extension rate T/C × % [7]: 181.01%
- Animal body weight (g) Start [8]: 19.6 g
- Animal body weight (g) end [8]: 21.3 g
- Anti-metastasis rate % [8]: 85.10%
- Lung clone numbers (mice) X ± SD [8]: 0.29 ± 0.12
- Animal body weight (g) Start (mouse melanoma B16 cells): 20.1 g
- Animal body weight (g) end (mouse melanoma B16 cells): 21.4 g
- Anti-metastasis rate % (mouse melanoma B16 cells): 95.30%
- Lung clone numbers (mice) X ± SD (mouse melanoma B16 cells): 2.26 ± 2.8
- Animal body weight (g) Start [9]: 20.4 g
- Animal body weight (g) end [9]: 22.0 g
- Tumor inhibition rate % [9]: 89.90%
- Tumor weight (g) X ± SD [9]: 0.130 ± 0.06 g
